The experiment concerns the target mTOR (Homo sapiens, UniProt P42345). In words: in vitro mTOR kinase activity assay (inhibition curve, Fig. 5e). It is filed as biochemical.

pIC50: −log10 of the molar value.

Regarding `COc1ncc(-c2ccc3ncnc(Nc4cnn(CCO)c4)c3c2)cc1NS(=O)(=O)c1ccc(F)cc1F` [DHW-208, 2,4-difluoro-N-(5-(4-((1-(2-hydroxyethyl)-1H-pyrazol-4-yl)amino)quinazolin-6-yl)-2-methoxypyridin-3-yl)benzenesulfonamide], the pIC50 (in general, the negative decadic logarithm of the IC50, by convention in mol/L) was 8.52.

The values are drawn from paper PMC7327080, “A novel 4-aminoquinazoline derivative, DHW-208, suppresses the growth of human breast cancer cells by targeting the PI3K/AKT/mTOR pathway” (Cell Death & Disease, 2020).
